{
  "source": "paper PMC5556071",
  "about": "“ATR inhibition facilitates targeting of leukemia dependence on convergent nucleotide biosynthetic pathways” (Nature Communications, 2017)",
  "key": {"[1]": {"test_system": "CEM cells", "assay": "Phospho-histone 3 (H3 pS10) staining, flow cytometry", "assay_type": "cell-based, human", "details": "500 nM 3-AP, 1 µM VE-822, 1 µM dCKi, 24 h", "method": "Phospho-histone 3 staining. Cells were treated with drug combinations of three drugs. 24 h following treatment, cells were fixed and permeabilized with 1% PFA and 1X Perm/wash solution respectively.\nFollowing fixation and permeabilization, cells were stained intracellularly with pH3 Ser10 antibody conjugated to AF647 (Cell signaling, #12230). Cells were then washed with PBS, stained with 0.5 mL of DAPI for DNA content (1 µg/mL in 2% FBS in PBS) before data acquisition. […]\nFACS analysis. All flow cytometry data were acquired on five-laser LSRII cytometers (BD) for analysis, and analyzed using FlowJo software (Tree Star). The cell cycle durations were calculated using equations for multiple time-point measurements according to previously published methods (Terry and White, 2006)."}, "[2]": {"test_system": "CEM cells", "assay": "Apoptosis assay, Annexin V and PI staining", "assay_type": "cell-based, human", "details": "500 nM 3-AP, 1 µM VE-822, 1 µM dCKi, 24 h", "method": "Apoptosis and cell death were assayed using Annexin V-FITC and PI according to manufacturer’s instructions (FITC Annexin V Apoptosis Detection Kit, BD Sciences, #556570). […]\nAnnexin V staining. Cells were treated with the indicated treatments for 24 or 72 h, then collected and washed twice with 1 mL of FACS buffer (2% FBS in PBS). Induction of apoptosis and cell death were assayed by staining the cells with Annexin V-FITC and PI according to manufacturer’s instructions (FITC Annexin V Apoptosis Detection Kit, BD Sciences, #556570).\nFACS analysis. All flow cytometry data were acquired on five-laser LSRII cytometers (BD) for analysis, and analyzed using FlowJo software (Tree Star). […]"}},
  "data": [
    {"smiles": "COc1ccc(-c2nc([C@@H](C)Sc3nc(N)cc(N)n3)c(C)s2)cc1OCCNS(C)(=O)=O", "note": "[dCKi]", "values": [
      {"measurement": "H3 pS10 plot, upper percentage (gate not given)", "setting": "[1]", "result": 2.4, "unit": "%"},
      {"measurement": "Annexin V+ cells (apoptosis induction)", "setting": "[2]", "result": 11.1, "unit": "%"}
    ]},
    {"smiles": "CNCc1ccc(-c2cc(-c3nc(-c4ccc(S(=O)(=O)C(C)C)cc4)cnc3N)on2)cc1", "note": "[VE-822]", "values": [
      {"measurement": "H3 pS10 plot, upper percentage (gate not given)", "setting": "[1]", "result": 6.5, "unit": "%"},
      {"measurement": "Annexin V+ cells (apoptosis induction)", "setting": "[2]", "result": 10.3, "unit": "%"}
    ]},
    {"smiles": "NC(=S)N/N=C/c1ncccc1N", "note": "[3-AP]", "values": [
      {"measurement": "H3 pS10 plot, upper percentage (gate not given)", "setting": "[1]", "result": 1.8, "unit": "%"},
      {"measurement": "Annexin V+ cells (apoptosis induction)", "setting": "[2]", "result": 31.0, "unit": "%"}
    ]}
  ]
}
